The first experiment has as its target T1, caleosin–histatin 3 fusion protein (Homo sapiens, UniProt P15516).
T1 construct: gene HTN3; sesame caleosin lacking residues 101-115 fused with histatin 3; synthetic histatin DNA; E. coli BL21(DE3), insoluble pellet; about 29 kDa; with Caleosin (Peroxygenase)
Nature of the experiment: flotation of aggregated artificial oil bodies (emulsion layer thickness), light microscopy. It is filed as binding. The conditions noted are these: equal volumes oil bodies and 2 mM catechin; 100 mM potassium phosphate, 50 mM KCl, pH 7.0; normalised to ECG; indirect, no caleosin-only control.
T1 sequence (P15516 20-51): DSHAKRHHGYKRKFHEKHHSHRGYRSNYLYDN
T1 sequence (Q9SQ57 with tags, fused parts or gaps DEL101-115 partner): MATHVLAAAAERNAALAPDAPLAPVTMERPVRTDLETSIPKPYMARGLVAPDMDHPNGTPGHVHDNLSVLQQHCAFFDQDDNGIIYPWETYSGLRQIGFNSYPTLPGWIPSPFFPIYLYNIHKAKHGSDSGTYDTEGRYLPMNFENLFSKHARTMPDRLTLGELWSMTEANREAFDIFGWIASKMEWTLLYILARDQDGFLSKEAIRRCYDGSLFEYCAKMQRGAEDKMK
For the molecule `Oc1cc(O)c2c(c1)O[C@H](c1ccc(O)c(O)c1)[C@@H](O)C2` [C, (+)-catechin], the “relative astringency (%)” value is reported as “aggregation of artificial oil bodies interacting with each catechin was examined”.
As for `O=C(O[C@@H]1Cc2c(O)cc(O)cc2O[C@H]1c1ccc(O)c(O)c1)c1cc(O)c(O)c(O)c1` [CG, (−)-catechin gallate], the “relative astringency (%)” value was “aggregation of artificial oil bodies interacting with each catechin was examined”.
For the molecule `Oc1cc(O)c2c(c1)O[C@H](c1ccc(O)c(O)c1)[C@H](O)C2` [EC, (−)-epicatechin], the “relative astringency (%)” value is “aggregation of artificial oil bodies interacting with each catechin was examined”.
For `Oc1cc(O)c2c(c1)O[C@H](c1cc(O)c(O)c(O)c1)[C@H](O)C2` [EGC, (−)-epigallocatechin], the “relative astringency (%)” value is “aggregation of artificial oil bodies interacting with each catechin was examined”.
On the same count and under the same terms, the entry for `O=C(O[C@@H]1Cc2c(O)cc(O)cc2O[C@@H]1c1cc(O)c(O)c(O)c1)c1cc(O)c(O)c(O)c1` [EGCG, (−)-epigallocatechin gallate] is “aggregation of artificial oil bodies interacting with each catechin was examined”.
`Oc1cc(O)c2c(c1)O[C@@H](c1cc(O)c(O)c(O)c1)[C@H](O)C2` [GC, (−)-gallocatechin]: the “relative astringency (%)” value is on record as “aggregation of artificial oil bodies interacting with each catechin was examined”.
Turning to `O=C(O[C@@H]1Cc2c(O)cc(O)cc2O[C@H]1c1cc(O)c(O)c(O)c1)c1cc(O)c(O)c(O)c1` [GCG, (−)-gallocatechin gallate], the “relative astringency (%)” value is “aggregation of artificial oil bodies interacting with each catechin was examined”.

A further experiment concerns the target T1, caleosin–histatin 3 fusion protein. Kind of experiment: atomic force and scanning electron microscopy of artificial oil bodies. It is filed as binding. To be noted: 5 mM rutin; oil bodies in distilled water, dried on silicon wafer; oil bodies alone set as 100%; indirect, no caleosin-only control.
For the molecule `C[C@@H]1O[C@@H](OC[C@H]2O[C@@H](Oc3c(-c4ccc(O)c(O)c4)oc4cc(O)cc(O)c4c3=O)[C@H](O)[C@@H](O)[C@@H]2O)[C@H](O)[C@H](O)[C@H]1O` [rutin], the “relative surface roughness (%)” value was “a smooth surface was observed on artificial oil bodies complexed with rutin”.

The values above are taken from publication PMC9457659, “Exploring The Relative Astringency of Tea Catechins and Distinct Astringent Sensation of Catechins and Flavonol Glycosides via an In Vitro Assay Composed of Artificial Oil Bodies” (Molecules, 2022).
